Measurements: patent US7138361B2, “Herbicidal heterocycles” (E. I. du Pont de Nemours and Company, priority 2000, dated 2006)

Tests used:
Format in all cases: in vivo
[1] = tested on: velvetleaf (Abutilon theophrasti); experiment: Test C preemergence; settings: for Plant response rating (0 to 100), Velvetleaf: Rate 250 g/ha, visual evaluation after 12 to 14 days
Procedure, shortened: (§1)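 Response scores (0 no effect to 100 complete control) came from visual comparison with untreated controls 12 to 14 days after treatment. Preemergence application was made to seeded soil; postemergence, to plants at the 1- to 4-leaf stage.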

corn (Zea mays) [2] = experiment: Test C preemergence; settings: for Plant response rating (0 to 100), Corn: Rate 250 g/ha, visual evaluation after 12 to 14 days
Procedure, shortened: as §1

kochia (Kochia scoparia) = experiment: Test C preemergence; settings: for Plant response rating (0 to 100), Kochia: Rate 250 g/ha, visual evaluation after 12 to 14 days
Procedure, shortened: as §1

[3] = tested on: morningglory (Ipomoea hederacea); experiment: Test C preemergence; settings: for Plant response rating (0 to 100), Morningglory: Rate 250 g/ha, visual evaluation after 12 to 14 days
Procedure, shortened: as §1

[4] = tested on: giant foxtail (Setaria faberii); experiment: Test C preemergence
Procedure, shortened: as §1

[5] = tested on: johnsongrass (Sorghum halepense); experiment: Test C preemergence; settings: for Plant response rating (0 to 100), Johnsongrass: Rate 250 g/ha, visual evaluation after 12 to 14 days
Procedure, shortened: as §1

Sunflower [6] = experiment: Test C preemergence
[7] = tested on: bermudagrass (Cynodon dactylon); experiment: Test C preemergence; settings: for Plant response rating (0 to 100 where 0 is no effect and 100 is complete control), Bermudagrass: Rate 250 g/ha, visual evaluation after 12 to 14 days
Procedure, shortened: as §1

[8] = tested on: yellow nutsedge (Cyperus esculentus); experiment: Test C preemergence; settings: for Plant response rating (0 to 100), Nutsedge: Rate 250 g/ha, visual evaluation after 12 to 14 days
Procedure, shortened: as §1

Sunflower [9] = experiment: Test C preemergence; settings: Rate 250 g/ha, visual evaluation after 12 to 14 days
[10] = tested on: blackgrass (Alopecurus myosuroides); experiment: Test B postemergence; settings: 13 to 15 days
Procedure, shortened: (§2)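 Visual injury scores, 0 = no effect to 100 = complete control, assigned against controls after 13 to 15 days in the greenhouse. Compounds formulated in non-phytotoxic solvent plus surfactant and applied to soil after planting (pre) or onto foliage of 1- to 4-leaf plants (post).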

[11] = tested on: velvetleaf (Abutilon theophrasti); experiment: Test B postemergence; settings: 13 to 15 days
Procedure, shortened: as §2

corn (Zea mays) [12] = experiment: Test B postemergence; settings: 13 to 15 days
Procedure, shortened: as §2

[13] = tested on: pigweed (Amaranthus retroflexus); experiment: Test B postemergence; settings: 13 to 15 days
Procedure, shortened: as §2

[14] = tested on: wheat (Triticum aestivum); experiment: Test B postemergence; settings: 13 to 15 days
Procedure, shortened: as §2

[15] = tested on: cocklebur (Xanthium strumarium); experiment: Test B postemergence; settings: 13 to 15 days
Procedure, shortened: as §2

[16] = tested on: crabgrass (Digitaria sanguinalis); experiment: Test B postemergence; settings: 13 to 15 days
Procedure, shortened: as §2

[17] = tested on: lambsquarters (Chenopodium album); experiment: Test B postemergence; settings: 13 to 15 days
Procedure, shortened: as §2

[18] = tested on: giant foxtail (Setaria faberii); experiment: Test B postemergence; settings: 13 to 15 days
Procedure, shortened: as §2

[19] = tested on: Surinam grass (Brachiaria decumbens); experiment: Test B postemergence; settings: 13 to 15 days
Procedure, shortened: as §2

[20] = tested on: morning glory (Ipomoea hederacea); experiment: Test B postemergence; settings: 13 to 15 days
Procedure, shortened: as §2

wild oat (Avena fatua) = experiment: Test B postemergence; settings: 13 to 15 days
Procedure, shortened: as §2

[21] = tested on: barnyardgrass (Echinochloa crus-galli); experiment: Test B postemergence; settings: 13 to 15 days
Procedure, shortened: as §2

[22] = Preemergence, Rate 500 g/ha, scale 0 to 100
[23] = preemergence, Rate 125 g/ha, scale 0 to 100, 0 no effect, 100 complete control
[24] = Rate 62 g/ha, scale 0 to 100, 0 no effect, 100 complete control
[25] = Rate 125 g/ha, scale 0 (no effect) to 100 (complete control)
[26] = Rate 500 g/ha, scale 0 to 100, 0 is no effect, 100 is complete control

O=C1C(n2ccc(C3CCCCC3)n2)SCN1c1cccc(C(F)(F)F)c1 (stereo not shown) [Compound 52]
Plant response rating, Velvetleaf [1, 22]: 0 | Plant response rating (0 to 100), Velvetleaf ([1]; preemergence): 0 | Plant response rating, Velvetleaf [1, 23]: 0 | Plant response rating, Corn (corn (Zea mays) [2]; [22]): 40 | Plant response rating, Corn (corn (Zea mays) [2]; [24]): 0 | Plant response rating (0 to 100), Corn (corn (Zea mays) [2]; preemergence): 20 | Plant response rating, Corn (corn (Zea mays) [2]; [23]): 0 | Plant response rating, Kochia (kochia (Kochia scoparia); [22]): 60 | Plant response rating, Kochia (kochia (Kochia scoparia); [24]): 0 | Plant response rating (0 to 100), Kochia (kochia (Kochia scoparia); preemergence): 30 | Plant response rating, Kochia (kochia (Kochia scoparia); [23]): 20 | Plant response rating, Morningglory [3, 22]: 30 | Plant response rating (0 to 100), Morningglory ([3]; preemergence): 0 | Plant response rating, Morningglory [3, 23]: 0 | Plant response rating, Foxtail, Giant [4, 22]: 30 | Plant response rating, Foxtail, Giant [4, 24]: 60 | Plant response rating, Foxtail, Giant [4, 23]: 70 | Plant response rating, Johnsongrass [5, 22]: 100 | Plant response rating, Johnsongrass [5, 24]: 0 | Plant response rating (0 to 100), Johnsongrass ([5]; preemergence): 90 | Plant response rating, Johnsongrass [5, 23]: 40 | Plant response rating, Sunflower (Sunflower [6]; Rate 500 g/ha, scale 0 to 100): 50 | Plant response rating, Bermudagrass [7, 22]: 100 | Plant response rating, Bermudagrass [7, 24]: 100 | Plant response rating (0 to 100 where 0 is no effect and 100 is complete control), Bermudagrass ([7]; preemergence): 100 | Plant response rating, Bermudagrass [7, 23]: 100 | Plant response rating, Nutsedge [8, 22]: 40 | Plant response rating, Nutsedge [8, 24]: 0 | Plant response rating (0 to 100), Nutsedge ([8]; preemergence): 20 | Plant response rating, Nutsedge [8, 23]: 0 | Plant response rating (0 to 100), Sunflower (Sunflower [9]): 0 | Plant response rating, Blackgrass [10, 25]: 0 | Plant response rating, Blackgrass [10, 26]: 0 | Plant response rating, Velvetleaf [11, 25]: 0 | Plant response rating, Velvetleaf [11, 26]: 0 | Plant response rating, Corn (corn (Zea mays) [12]; [25]): 20 | Plant response rating, Corn (corn (Zea mays) [12]; [26]): 20 | Plant response rating, Pigweed [13, 25]: 0 | Plant response rating, Pigweed [13, 26]: 0 | Plant response rating, Wheat [14, 25]: 0 | Plant response rating, Wheat [14, 26]: 0 | Plant response rating, Cocklebur [15, 25]: 0 | Plant response rating, Cocklebur [15, 26]: 0 | Plant response rating, Crabgrass [16, 25]: 0 | Plant response rating, Crabgrass [16, 26]: 0 | Plant response rating, Lambsquarters [17, 25]: 0 | Plant response rating, Lambsquarters [17, 26]: 0 | Plant response rating, Foxtail, Giant [18, 25]: 0 | Plant response rating, Foxtail, Giant [18, 26]: 0 | Plant response rating, Surinam grass [19, 25]: 0 | Plant response rating, Surinam grass [19, 26]: 0 | Plant response rating, Morningglory [20, 25]: 0 | Plant response rating, Morningglory [20, 26]: 0 | Plant response rating, Wild Oat (wild oat (Avena fatua); [25]): 0 | Plant response rating, Wild Oat (wild oat (Avena fatua); [26]): 0 | Plant response rating, Barnyardgrass [21, 25]: 0 | Plant response rating, Barnyardgrass [21, 26]: 0

CCC(C)c1ccn(C2SCN(c3cccc(C(F)(F)F)c3)C2=O)n1 (stereo not shown) [Compound 20]
Plant response rating, Velvetleaf [1, 22]: 20 | Plant response rating, Velvetleaf [1, 24]: 0 | Plant response rating (0 to 100), Velvetleaf ([1]; preemergence): 20 | Plant response rating, Velvetleaf [1, 23]: 0 | Plant response rating, Corn (corn (Zea mays) [2]; [22]): 30 | Plant response rating, Corn (corn (Zea mays) [2]; [24]): 0 | Plant response rating (0 to 100), Corn (corn (Zea mays) [2]; preemergence): 30 | Plant response rating, Corn (corn (Zea mays) [2]; [23]): 30 | Plant response rating, Kochia (kochia (Kochia scoparia); [22]): 100 | Plant response rating, Kochia (kochia (Kochia scoparia); [24]): 90 | Plant response rating (0 to 100), Kochia (kochia (Kochia scoparia); preemergence): 100 | Plant response rating, Kochia (kochia (Kochia scoparia); [23]): 100 | Plant response rating, Morningglory [3, 22]: 40 | Plant response rating, Morningglory [3, 24]: 0 | Plant response rating (0 to 100), Morningglory ([3]; preemergence): 40 | Plant response rating, Morningglory [3, 23]: 30 | Plant response rating, Foxtail, Giant [4, 22]: 0 | Plant response rating, Foxtail, Giant [4, 24]: 0 | Plant response rating (0 to 100), Foxtail, Giant ([4]; preemergence, Rate 250 g/ha, visual evaluation after 12 to 14 days): 100 | Plant response rating, Foxtail, Giant [4, 23]: 0 | Plant response rating, Johnsongrass [5, 22]: 100 | Plant response rating, Johnsongrass [5, 24]: 0 | Plant response rating (0 to 100), Johnsongrass ([5]; preemergence): 50 | Plant response rating, Johnsongrass [5, 23]: 20 | Plant response rating, Sunflower (Sunflower [6]; [24]): 0 | Plant response rating, Sunflower (Sunflower [6]; Rate 500 g/ha, scale 0 to 100): 70 | Plant response rating, Bermudagrass [7, 22]: 100 | Plant response rating, Bermudagrass [7, 24]: 70 | Plant response rating (0 to 100 where 0 is no effect and 100 is complete control), Bermudagrass ([7]; preemergence): 100 | Plant response rating, Bermudagrass [7, 23]: 100 | Plant response rating, Nutsedge [8, 22]: 50 | Plant response rating, Nutsedge [8, 24]: 0 | Plant response rating (0 to 100), Nutsedge ([8]; preemergence): 50 | Plant response rating, Nutsedge [8, 23]: 0 | Plant response rating (0 to 100), Sunflower (Sunflower [9]): 60 | Plant response rating, Blackgrass [10, 25]: 0 | Plant response rating, Blackgrass [10, 26]: 0 | Plant response rating, Velvetleaf [11, 25]: 10 | Plant response rating, Velvetleaf [11, 26]: 20 | Plant response rating, Corn (corn (Zea mays) [12]; [25]): 0 | Plant response rating, Corn (corn (Zea mays) [12]; [26]): 20 | Plant response rating, Pigweed [13, 25]: 90 | Plant response rating, Pigweed [13, 26]: 90 | Plant response rating, Wheat [14, 25]: 0 | Plant response rating, Wheat [14, 26]: 0 | Plant response rating, Cocklebur [15, 25]: 80 | Plant response rating, Cocklebur [15, 26]: 90 | Plant response rating, Crabgrass [16, 25]: 20 | Plant response rating, Crabgrass [16, 26]: 80 | Plant response rating, Lambsquarters [17, 25]: 90 | Plant response rating, Lambsquarters [17, 26]: 90 | Plant response rating, Foxtail, Giant [18, 25]: 50 | Plant response rating, Foxtail, Giant [18, 26]: 90 | Plant response rating, Surinam grass [19, 25]: 0 | Plant response rating, Surinam grass [19, 26]: 0 | Plant response rating, Morningglory [20, 25]: 60 | Plant response rating, Morningglory [20, 26]: 60 | Plant response rating, Wild Oat (wild oat (Avena fatua); [25]): 0 | Plant response rating, Wild Oat (wild oat (Avena fatua); [26]): 0 | Plant response rating, Barnyardgrass [21, 25]: 60 | Plant response rating, Barnyardgrass [21, 26]: 100
